For 27 compounds, IC50 results are on record in US9073895B2 (Boehringer Ingelheim International GmbH, priority 2010, dated 2015).

In experiment [1] the target is T1, recombinant human FLAP protein (Homo sapiens, UniProt P20292).
T1 construct: made in house; host or cells: Sf9 insect cells (membrane fraction, 100,000 x g pellet)
T1 sequence (P20292 1-161): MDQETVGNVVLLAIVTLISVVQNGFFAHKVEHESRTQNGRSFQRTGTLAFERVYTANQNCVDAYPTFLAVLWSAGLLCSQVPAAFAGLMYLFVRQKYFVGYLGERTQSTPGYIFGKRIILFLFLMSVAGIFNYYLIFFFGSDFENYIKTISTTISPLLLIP
Nature of the experiment: FLAP binding assay (SPA, displacement of [125I]L-691,831). As to conditions: membranes of sf9 cells expressing human FLAP, [125I]L-691,831 probe; read-out: hFLAP binding IC50. A digest of the protocol: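 Membranes from sf9 cells expressing human FLAP (5 μg/well) were bound to WGA SPA beads (200 μg/well). Nonspecific binding was defined with 10 μM unlabelled L-691,831.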
A general note: Loss of bound radioactivity is the signal in a displacement assay; it reports binding, not function.

The test system of experiment [2] is synthesis of LTB4 in human whole blood. Description: Human whole blood LTB4 production inhibition assay. The format is cell-based. As to conditions: heparinized human whole blood, calcimycin 20 μM, plasma LTB4; read-out: HuWB IC50. As to the method: Compounds are additionally tested in a human whole blood assay to determine their ability to inhibit the synthesis of LTB4 in a cellular system. Compounds are combined with heparinized human whole blood and incubated for 15 minutes at 37° C. Calcimycin (20 μM final, prepared in phosphate-buffered saline, pH 7.4) is then added and the mixture is incubated for another 30 minutes at 37° C. The samples are centrifuged for 5 min at low speed (1500×g) and the plasma layer is removed. Plasma LTB4 concentrations are then measured using an antibody-based homogenous time-resolved fluorescence method (CisBio, Bedford, Mass.).

The term IC50 denotes the concentration at which inhibition is half-maximal. Turning to `Nc1ncc(-c2ccc(C3(C(=O)Nc4nc(-c5ccncc5)cs4)CCOCC3)cc2)cn1` [Example 60, 4-[4-(2-aminopyrimidin-5-yl)phenyl]-N-[4-(pyridin-4-yl)-1,3-thiazol-2-yl]tetrahydro-2H-pyran-4-carboxamide], the results for the IC50 in experiment [1] and in experiment [2] were 3.5 nM and 310 nM, respectively.
Consider `Nc1ncc(-c2ccc(C3(C(=O)Nc4cccc(OCc5ccccc5)c4)CCOCC3)cc2)cn1` [Example 61, 4-[4-(2-aminopyrimidin-5-yl)phenyl]-N-[3-(benzyloxy)phenyl]tetrahydro-2H-pyran-4-carboxamide], for which the half-inhibitory concentration (IC50) is 94 nM in experiment [1] and greater than 3000 nM in experiment [2].
The matching figures for `Cc1ccc(NC(=O)C2(c3ccc(-c4cnc(N)nc4)cc3)CCOCC2)cc1C#N` [Example 62, 4-[4-(2-aminopyrimidin-5-yl)phenyl]-N-(3-cyano-4-methylphenyl)tetrahydro-2H-pyran-4-carboxamide]: 33.5 nM and greater than 3000 nM.
The matching figures for `Nc1ncc(-c2ccc(C3(C(=O)Nc4ccc(Oc5ccc(Cl)cc5)cc4)CCOCC3)cc2)cn1` [Example 63, 4-[4-(2-aminopyrimidin-5-yl)phenyl]-N-[4-(4-chlorophenoxy)phenyl]tetrahydro-2H-pyran-4-carboxamide]: 30.5 nM and 812 nM.
Turning to `Nc1ncc(-c2ccc(C3(C(=O)Nc4ccc(S(=O)(=O)N5CCOCC5)cc4)CCOCC3)cc2)cn1` [Example 64, 4-[4-(2-aminopyrimidin-5-yl)phenyl]-N-[4-(morpholin-4-ylsulfonyl)phenyl]tetrahydro-2H-pyran-4-carboxamide], the half-inhibitory concentration (IC50) in experiment [1] was 48 nM; in experiment [2], 850 nM.
In the case of `Nc1ncc(-c2ccc(C3(C(=O)Nc4cnc(-c5ccccc5)nc4)CCOCC3)cc2)cn1` [Example 65, 4-[4-(2-aminopyrimidin-5-yl)phenyl]-N-(2-phenylpyrimidin-5-yl)tetrahydro-2H-pyran-4-carboxamide], the half-inhibitory concentration (IC50) in experiment [1] worked out at 14 nM; in experiment [2], 905 nM.
In the same order, the values of `Nc1ncc(-c2ccc(C3(C(=O)Nc4ccc(Cl)c(F)c4)CCOCC3)cc2)cn1` [Example 66, 4-[4-(2-aminopyrimidin-5-yl)phenyl]-N-(4-chloro-3-fluorophenyl)tetrahydro-2H-pyran-4-carboxamide] are 11.9 nM and 1780 nM.
The matching figures for `Nc1ncc(-c2ccc(C3(C(=O)Nc4ccc(-c5ccccc5)nc4)CCOCC3)cc2)cn1` [Example 67, 4-[4-(2-aminopyrimidin-5-yl)phenyl]-N-(6-phenylpyridin-3-yl)tetrahydro-2H-pyran-4-carboxamide]: 14.5 nM and 1210 nM.
The matching figures for `CC(C)n1ncc2cc(NC(=O)C3(c4ccc(-c5cnc(N)nc5)cc4)CCOCC3)cnc21` [Example 68, 4-[4-(2-aminopyrimidin-5-yl)phenyl]-N-[1-(propan-2-yl)-1H-pyrazolo[3,4-b]pyridin-5-yl)tetrahydro-2H-pyran-4-carboxamide]: 68.5 nM and 1210 nM.
In the case of `Cc1nc(-c2cccc(NC(=O)C3(c4ccc(-c5cnc(N)nc5)cc4)CCOCC3)c2)cs1` [Example 70, 4-[4-(2-aminopyrimidin-5-yl)phenyl]-N-[3-(2-methyl-1,3-thiazol-4-yl)phenyl]tetrahydro-2H-pyran-4-carboxamide], the concentration for half-maximal inhibition (IC50) is 42 nM in experiment [1] and greater than 3000 nM in experiment [2].
Consider `Nc1ncc(-c2ccc(C3(C(=O)Nc4ccc5c(c4)C(=O)OC5)CCOCC3)cc2)cn1` [Example 71, 4-[4-(2-aminopyrimidin-5-yl)phenyl]-N-(3-oxo-1,3-dihydro-2-benzofuran-5-yl)tetrahydro-2H-pyran-4-carboxamide], for which the IC50 was 190 nM in experiment [1] and greater than 3000 nM in experiment [2].
The matching figures for `Nc1ncc(-c2ccc(C3(C(=O)Nc4ccc(N5CCOCC5)c(Cl)c4)CCOCC3)cc2)cn1` [Example 72, 4-[4-(2-aminopyrimidin-5-yl)phenyl]-N-[3-chloro-4-(mopholin-4-yl)phenyl]tetrahydro-2H-pyran-4-carboxamide]: 28.3 nM and 244 nM.
As for `COC(=O)c1sc(-c2ccc(Cl)cc2)cc1NC(=O)C1(c2ccc(-c3cnc(N)nc3)cc2)CCOCC1` [Example 73, methyl 3-[({4-[4-(2-aminopyrimidin-5-yl)phenyl]tetrahydro-2H-pyran-4-yl}carbonyl)amino]-5-(4-chlorophenyl)thiophene-2-carboxylate], the IC50 in experiment [1] worked out at 53.5 nM; in experiment [2], 1500 nM.
For the compound `CC(C)(C)c1cccc(NC(=O)C2(c3ccc(-c4cnc(N)nc4)cc3)CCOCC2)c1` [Example 74, 4-[4-(2-aminopyrimidin-5-yl)phenyl]-N-(3-tert-butylphenyl)tetrahydro-2H-pyran-4-carboxamide], the IC50 in experiment [1] was 97 nM; in experiment [2], greater than 3000 nM.
Turning to `Cc1nc2cc(NC(=O)C3(c4ccc(-c5cnc(N)nc5)cc4)CCOCC3)ccc2s1` [Example 75, 4-[4-(2-aminopyrimidin-5-yl)phenyl]-N-(2-methyl-1,3-benzothiazol-5-yl)tetrahydro-2H-pyran-4-carboxamide], the figures for the IC50 in experiment [1] and in experiment [2] were 68 nM and greater than 3000 nM, respectively.
In the case of `COc1ccc(Oc2ccccc2)cc1NC(=O)C1(c2ccc(-c3cnc(N)nc3)cc2)CCOCC1` [Example 76, 4-[4-(2-aminopyrimidin-5-yl)phenyl]-N-(2-methoxy-5-phenoxyphenyl)tetrahydro-2H-pyran-4-carboxamide], the half-maximal inhibitory concentration (IC50) in experiment [1] is 52.5 nM; in experiment [2] it was greater than 3000 nM.
`CCN(CC)S(=O)(=O)c1cccc(NC(=O)C2(c3ccc(-c4cnc(N)nc4)cc3)CCOCC2)c1` [Example 78, 4-[4-(2-aminopyrimidin-5-yl)phenyl]-N-[3-(diethylsulfamoyl)phenyl] tetrahydro-2H-pyran-4-carboxamide]: the figures for the half-inhibitory concentration (IC50) in experiment [1] and in experiment [2] were 113 nM and greater than 3000 nM, respectively.
For `N#Cc1ccnc(NC(=O)C2(c3ccc(-c4cnc(N)nc4)cc3)CCOCC2)c1` [Example 79, 4-[4-(2-aminopyrimidin-5-yl)phenyl]-N-(4-cyanopyridin-2-yl)tetrahydro-2H-pyran-4-carboxamide], the figures for the half-inhibitory concentration (IC50) in experiment [1] and in experiment [2] were 53.5 nM and greater than 3000 nM, respectively.
Consider `COC(=O)c1cccc(NC(=O)C2(c3ccc(-c4cnc(N)nc4)cc3)CCOCC2)c1` [Example 80, methyl 3-[({4-[4-(2-aminopyrimidin-5-yl)phenyl]tetrahydro-2H-pyran-4-yl}carbonyl)amino]benzoate], for which the 50% inhibitory concentration (IC50) was 60 nM in experiment [1] and greater than 3000 nM in experiment [2].
The matching figures for `Nc1ncc(-c2ccc(C3(C(=O)Nc4cc(C(F)(F)F)ccc4N4CCOCC4)CCOCC3)cc2)cn1` [Example 81, 4-[4-(2-aminopyrimidin-5-yl)phenyl]-N-[2-(morpholin-4-yl)-5-(trifluoromethyl)phenyl] tetrahydro-2H-pyran-4-carboxamide]: 54 nM and greater than 3000 nM.
Regarding `Nc1ncc(-c2ccc(C3(C(=O)Nc4cc5ccccc5cn4)CCOCC3)cc2)cn1` [Example 82, 4-[4-(2-aminopyrimidin-5-yl)phenyl]-N-(isoquinolin-3-yl)tetrahydro-2H-pyran-4-carboxamide], the IC50 in experiment [1] worked out at 10.5 nM; in experiment [2], 2780 nM.
On to `Nc1ncc(-c2ccc(C3(C(=O)Nc4ccc(C(F)(F)F)c(F)c4)CCOCC3)cc2)cn1` [Example 83, 4-[4-(2-aminopyrimidin-5-yl)phenyl]-N-[3-fluoro-4-(trifluoromethyl)phenyl] tetrahydro-2H-pyran-4-carboxamide], for which the half-inhibitory concentration (IC50) in experiment [1] was determined as 14.5 nM; in experiment [2], 1060 nM.
In the same order, the values of `Nc1ncc(-c2ccc(C3(C(=O)Nc4ccc(OCc5ccccc5)cc4)CCOCC3)cc2)cn1` [Example 85, 4-[4-(2-aminopyrimidin-5-yl)phenyl]-N-[4-(benzyloxy)phenyl]tetrahydro-2H-pyran-4-carboxamide] are 12.5 nM and 849 nM.
In the same order, the values of `Cc1ccc2cc(NC(=O)C3(c4ccc(-c5cnc(N)nc5)cc4)CCOCC3)ccc2n1` [Example 86, 4-[4-(2-aminopyrimidin-5-yl)phenyl]-N-(2-methylquinolin-6-yl)tetrahydro-2H-pyran-4-carboxamide] are 18.7 nM and 412 nM.
For the compound `CN(C)S(=O)(=O)c1ccc(NC(=O)C2(c3ccc(-c4cnc(N)nc4)cc3)CCC2)cc1` [Example 87, 1-[4-(2-aminopyrimidin-5-yl)phenyl]-N-[4-(dimethylsulfamoyl)phenyl] cyclobutanecarboxamide], the concentration for half-maximal inhibition (IC50) came to 4 nM in experiment [1] and 192 nM in experiment [2].
In the same order, the values of `Nc1ncc(-c2ccc(C3(C(=O)Nc4ccc(S(=O)(=O)N5CCOCC5)cc4)CCC3)cc2)cn1` [Example 88, 1-[4-(2-aminopyrimidin-5-yl)phenyl]-N-[4-(mopholin-4-ylsulfonyl)phenyl]cyclobutane-carboxamide] are 5.65 nM and 278 nM.
In the same order, the values of `CS(=O)(=O)c1ccc(NC(=O)C2(c3ccc(-c4cnc(N)nc4)cc3)CCC2)cn1` [Example 89, 1-[4-(2-aminopyrimidin-5-yl)phenyl]-N-[6-(methylsulfonyl)pyridin-3-yl]cyclobutanecarboxamide] are 8.13 nM and 202 nM.
